pEC50: −log10 of the molar value. Read-outs that look alike come from different tables or passages of the source.
Legend:
GLP-1R [1] = biological target: T1, GLP-1R (Homo sapiens, UniProt P43220); experiment: HitHunter cAMP assay (GLP-1R); assay type: cell-based; settings: cAMP; for Emax: read-out: (Emax) GLP-1R
Outline: (§1)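 Luminescent readout of cAMP by enzyme-fragment immunocompetition gave agonist concentration-response data. Cells (10,000/well) sat in HBSS buffer containing IBMX 625 μM, HEPES 10 mM and BSA 0.2%, exposed to agonist for 30 min at room temperature.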

GIP-R = biological target: T2, GIP-R (Homo sapiens, UniProt P48546); experiment: HitHunter cAMP assay (GIP-R); assay type: cell-based; settings: cAMP; for Emax: read-out: (Emax) GIP-R
T2 sequence (P48546 22-466): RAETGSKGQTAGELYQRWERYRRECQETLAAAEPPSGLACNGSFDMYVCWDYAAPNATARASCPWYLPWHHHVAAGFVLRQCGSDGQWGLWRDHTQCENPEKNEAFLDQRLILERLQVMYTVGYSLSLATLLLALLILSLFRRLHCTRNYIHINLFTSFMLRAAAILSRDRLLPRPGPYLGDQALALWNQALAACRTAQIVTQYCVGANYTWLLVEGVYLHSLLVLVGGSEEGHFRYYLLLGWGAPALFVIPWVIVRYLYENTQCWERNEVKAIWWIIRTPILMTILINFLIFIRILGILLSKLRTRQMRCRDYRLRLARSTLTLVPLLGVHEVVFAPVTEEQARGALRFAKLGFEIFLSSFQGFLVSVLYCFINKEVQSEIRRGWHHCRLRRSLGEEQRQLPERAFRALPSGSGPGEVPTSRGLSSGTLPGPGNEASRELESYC
Outline: as §1

mice = experiment: Glucose tolerance test (GTT); assay type: in vivo, mouse; settings: 24 h GTT, s.c., percent of vehicle
Outline: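 Compounds diluted in PBS from 1 mM DMSO stocks and given subcutaneously 15 min (5-6 h fast), 4 h (16 h overnight fast), 16 h or 24 h before intraperitoneal glucose (2 g/kg). Tail blood glucose read at 10–120 min post-glucose, at least 6 mice per time-point. Glucose AUC over time determined.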

GLP-1R [2] = biological target: T1, GLP-1R; experiment: PathHunter β-arrestin assay; assay type: cell-based
Outline: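 Overnight-plated cells; 0.2% BSA medium; agonist 22-pt 2× dilution series, duplicate; 90 min, 37 °C/5% CO2; detection reagent 3 h RT, dark; luminescence.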

[3] = Table 3, read-out: EC50 GLP-1R/nM
[4] = Table 3A, read-out: EC50 GLP-1R/nM
[5] = Table 3, read-out: EC50 GIP-R/nM
[6] = Table 3A, read-out: EC50 GIP-R/nM
[7] = PathHunter β-arrestin assay, read-out: β-arrestin activity EC50

T1 sequence (P43220 24-463): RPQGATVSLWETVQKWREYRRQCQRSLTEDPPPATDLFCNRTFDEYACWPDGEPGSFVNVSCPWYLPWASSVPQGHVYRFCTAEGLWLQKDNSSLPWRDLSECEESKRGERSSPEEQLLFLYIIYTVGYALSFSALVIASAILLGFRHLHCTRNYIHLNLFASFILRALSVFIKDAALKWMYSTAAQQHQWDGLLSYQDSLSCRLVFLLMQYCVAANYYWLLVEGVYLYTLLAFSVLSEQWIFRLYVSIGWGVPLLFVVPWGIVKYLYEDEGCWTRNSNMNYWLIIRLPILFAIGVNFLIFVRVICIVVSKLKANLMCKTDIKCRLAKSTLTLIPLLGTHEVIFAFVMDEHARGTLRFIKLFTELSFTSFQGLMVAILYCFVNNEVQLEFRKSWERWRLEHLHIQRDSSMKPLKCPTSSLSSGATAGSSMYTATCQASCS

| Structure (SMILES) | Emax (GLP-1R [1]; Table 3) [%] | EC50 (GLP-1R [1]; [3]) [nM] | Emax (GLP-1R [1]; Table 3A) [%] | EC50 (GLP-1R [1]; [4]) [nM] | Emax (GIP-R; Table 3) [%] | EC50 (GIP-R; [5]) [nM] | Emax (GIP-R; Table 3A) [%] | EC50 (GIP-R; [6]) [nM] | AUC score (mice; dose range 2-5 nmol/kg) | pEC50 (GLP-1R [2]; [7]) | Emax at 1 µM (GIP-R; read-out: (Emax) GIP-R at 1 μM, Table 3, at 1 μM) [%] | AUC score (mice; dose range 5.1-15 nmol/kg) | EC50 (GLP-1R [1]; EC50 GLP-1R/nM, Table 3) [nM] | EC50 (GLP-1R [1]; EC50 GLP-1R/nM, Table 3A) [nM] | EC50 (GIP-R; EC50 GIP-R/nM, Table 3) [nM] | EC50 (GIP-R; EC50 GIP-R/nM, Table 3A) [nM] | pEC50 (GLP-1R [2]) |
| --- | --- | --- | --- | --- | --- | --- | --- | --- | --- | --- | --- | --- | --- | --- | --- | --- | --- |
| CCCCCCCCCCCCCCCC(=O)N[C@@H](CCC(=O)NCCCC[C@H](NC(=O)[C@H](CO)NC(=O)[C@@H]1CCCN1C(=O)[C@@H]1CCCN1C(=O)[C@@H]1CCCN1C(=O)[C@H](C)NC(=O)CNC(=O)[C@H](CO)NC(=O)[C@H](CO)NC(=O)[C@@H]1CCCN1C(=O)CNC(=O)CNC(=O)[C@H](C)NC(=O)[C@H](CC(C)C)NC(=O)[C@H](CC(C)C)NC(=O)[C@H](Cc1c[nH]c2ccccc12)NC(=O)[C@H](CC(N)=O)NC(=O)[C@@H](NC(=O)[C@H](Cc1ccccc1)NC(=O)[C@H](CCC(=O)O)NC(=O)C(C)(C)NC(=O)[C@H](C)NC(=O)[C@H](C)NC(=O)[C@H](CCC(N)=O)NC(=O)[C@H](CCCCN)NC(=O)[C@H](CC(=O)O)NC(=O)[C@H](CC(C)C)NC(=O)[C@H](Cc1ccc(O)cc1)NC(=O)[C@@H](NC(=O)[C@H](CO)NC(=O)[C@H](Cc1ccc(O)cc1)NC(=O)[C@H](CC(=O)O)NC(=O)[C@H](CO)NC(=O)[C@@H](NC(=O)[C@H](Cc1ccccc1)NC(=O)[C@@H](NC(=O)CNC(=O)[C@H](CCC(=O)O)NC(=O)CSCC(=O)NCCN1CCC(C)C1=O)[C@@H](C)O)[C@@H](C)O)[C@@H](C)CC)C(C)C)C(N)=O)C(=O)O (single isomer, unassigned) [Compound 68] | 109 | 0.1 to 1 | 109 | 0.1 to 1 | 87 | 0.1 to 1 | 87 | 0.1 to 1 | 2 (AUC score 2 = 26-50%) | < 6.00 | – | – | – | – | – | – | – |
| CCCCCCCCCCCCCCCC(=O)N[C@@H](CCC(=O)NCCCC[C@H](NC(=O)[C@H](CO)NC(=O)[C@@H]1CCCN1C(=O)[C@@H]1CCCN1C(=O)[C@@H]1CCCN1C(=O)[C@H](C)NC(=O)CNC(=O)[C@H](CO)NC(=O)[C@H](CO)NC(=O)[C@@H]1CCCN1C(=O)CNC(=O)CNC(=O)[C@H](C)NC(=O)[C@H](CC(C)C)NC(=O)[C@H](CC(C)C)NC(=O)[C@H](Cc1c[nH]c2ccccc12)NC(=O)[C@H](CC(N)=O)NC(=O)[C@@H](NC(=O)[C@H](Cc1ccccc1)NC(=O)[C@H](CCC(=O)O)NC(=O)C(C)(C)NC(=O)[C@H](C)NC(=O)[C@H](C)NC(=O)[C@H](CCC(N)=O)NC(=O)[C@H](CCCCN)NC(=O)[C@H](CC(=O)O)NC(=O)[C@H](CC(C)C)NC(=O)[C@H](Cc1ccc(O)cc1)NC(=O)[C@@H](NC(=O)[C@H](CO)NC(=O)[C@H](Cc1ccc(O)cc1)NC(=O)[C@H](CC(=O)O)NC(=O)[C@H](CO)NC(=O)[C@@H](NC(=O)[C@H](Cc1ccccc1)NC(=O)[C@@H](NC(=O)CNC(=O)[C@H](CCC(=O)O)NC(=O)CSCC(=O)N1CCNC1=O)[C@@H](C)O)[C@@H](C)O)[C@@H](C)CC)C(C)C)C(N)=O)C(=O)O [Compound 98] | 96 | 0.1 to 1 | 96 | 0.1 to 1 | – | > 1000 | – | > 1000 | – | < 6.00 | < 5 | 2 (AUC score 2 = 26-50%) | – | – | – | – | – |
| CCCCCCCCCCCCCCCC(=O)N[C@@H](CCC(=O)NCCCC[C@H](NC(=O)[C@H](CO)NC(=O)[C@@H]1CCCN1C(=O)[C@@H]1CCCN1C(=O)[C@@H]1CCCN1C(=O)[C@H](C)NC(=O)CNC(=O)[C@H](CO)NC(=O)[C@H](CO)NC(=O)[C@@H]1CCCN1C(=O)CNC(=O)CNC(=O)[C@H](C)NC(=O)[C@H](CC(C)C)NC(=O)[C@H](CC(C)C)NC(=O)[C@H](Cc1c[nH]c2ccccc12)NC(=O)[C@H](CC(N)=O)NC(=O)[C@@H](NC(=O)[C@H](Cc1ccccc1)NC(=O)[C@H](CCC(=O)O)NC(=O)C(C)(C)NC(=O)[C@H](C)NC(=O)[C@H](C)NC(=O)[C@H](CCC(N)=O)NC(=O)[C@H](CCCCN)NC(=O)[C@H](CC(=O)O)NC(=O)[C@H](CC(C)C)NC(=O)[C@H](Cc1ccc(O)cc1)NC(=O)[C@@H](NC(=O)[C@H](CO)NC(=O)[C@H](Cc1ccc(O)cc1)NC(=O)[C@H](CC(=O)O)NC(=O)[C@H](CO)NC(=O)[C@@H](NC(=O)[C@H](Cc1ccccc1)NC(=O)[C@@H](NC(=O)CNC(=O)[C@H](CCC(=O)O)NC(=O)CSCC(=O)NCCN1C(=O)C[C@@H](O)C1=O)[C@@H](C)O)[C@@H](C)O)[C@@H](C)CC)C(C)C)C(N)=O)C(=O)O [Compound 79] | 102 | – | 102 | – | 77 | – | 77 | – | – | – | – | 2 (AUC score 2 = 26-50%) | 0.1 to 1 | 0.1 to 1 | 0.1 to 1 | 0.1 to 1 | < 6.00 |
| CCCCCCCCCCCCCCCC(=O)N[C@@H](CCC(=O)NCCCC[C@H](NC(=O)[C@H](CO)NC(=O)[C@@H]1CCCN1C(=O)[C@@H]1CCCN1C(=O)[C@@H]1CCCN1C(=O)[C@H](C)NC(=O)CNC(=O)[C@H](CO)NC(=O)[C@H](CO)NC(=O)[C@@H]1CCCN1C(=O)CNC(=O)CNC(=O)[C@H](C)NC(=O)[C@H](CC(C)C)NC(=O)[C@H](CC(C)C)NC(=O)[C@H](Cc1c[nH]c2ccccc12)NC(=O)[C@H](CC(N)=O)NC(=O)[C@@H](NC(=O)[C@H](Cc1ccccc1)NC(=O)[C@H](CCC(=O)O)NC(=O)C(C)(C)NC(=O)[C@H](C)NC(=O)[C@H](C)NC(=O)[C@H](CCC(N)=O)NC(=O)[C@H](CCCCN)NC(=O)[C@H](CC(=O)O)NC(=O)[C@H](CC(C)C)NC(=O)[C@H](Cc1ccc(O)cc1)NC(=O)[C@@H](NC(=O)[C@H](CO)NC(=O)[C@H](Cc1ccc(O)cc1)NC(=O)[C@H](CC(=O)O)NC(=O)[C@H](CO)NC(=O)[C@@H](NC(=O)[C@H](Cc1ccccc1)NC(=O)[C@@H](NC(=O)CNC(=O)[C@H](CCC(=O)O)NC(=O)CCNC(=O)CN1CCOCC1=O)[C@@H](C)O)[C@@H](C)O)[C@@H](C)CC)C(C)C)C(N)=O)C(=O)O [Compound 233] | – | – | 96 | < 0.1 | – | – | 77 | 1 to 10 | 2 (AUC score 2 = 26-50%) | 6.00 to 8.00 | – | – | – | – | – | – | – |
| CCCCCCCCCCCCCCCC(=O)N[C@@H](CCC(=O)NCCCC[C@H](NC(=O)[C@H](CO)NC(=O)[C@@H]1CCCN1C(=O)[C@@H]1CCCN1C(=O)[C@@H]1CCCN1C(=O)[C@H](C)NC(=O)CNC(=O)[C@H](CO)NC(=O)[C@H](CO)NC(=O)[C@@H]1CCCN1C(=O)CNC(=O)CNC(=O)[C@H](C)NC(=O)[C@H](CC(C)C)NC(=O)[C@H](CC(C)C)NC(=O)[C@H](Cc1c[nH]c2ccccc12)NC(=O)[C@H](CC(N)=O)NC(=O)[C@@H](NC(=O)[C@H](Cc1ccccc1)NC(=O)[C@H](CCC(=O)O)NC(=O)C(C)(C)NC(=O)[C@H](C)NC(=O)[C@H](C)NC(=O)[C@H](CCC(N)=O)NC(=O)[C@H](CCCCN)NC(=O)[C@H](CC(=O)O)NC(=O)[C@H](CC(C)C)NC(=O)[C@H](Cc1ccc(O)cc1)NC(=O)[C@@H](NC(=O)[C@H](CO)NC(=O)[C@H](Cc1ccc(O)cc1)NC(=O)[C@H](CC(=O)O)NC(=O)[C@H](CO)NC(=O)[C@@H](NC(=O)[C@H](Cc1ccccc1)NC(=O)[C@@H](NC(=O)CNC(=O)[C@H](CCC(=O)O)NC(=O)CSCC(=O)NCCN1C(=O)C(C)=C(C)C1=O)[C@@H](C)O)[C@@H](C)O)[C@@H](C)CC)C(C)C)C(N)=O)C(=O)O [Compound 77] | 90 | – | 90 | – | 82 | – | 82 | – | – | – | – | 2 (AUC score 2 = 26-50%) | 0.1 to 1 | 0.1 to 1 | 0.1 to 1 | 0.1 to 1 | < 6.00 |

Reference: patent US20260176320A1, “MODULATORS OF G-PROTEIN COUPLED RECEPTORS” (priority 2018, published 2026)
